From US7495015B2, “Indazole derivatives and methods for using the same” (Roche Palo Alto LLC, priority 2004, dated 2009)

Target: T1, p38 MAP kinase (Homo sapiens, UniProt Q16539)
T1 construct: made in house; host or cells: E. coli (co-expressed with SEK-1 and MEKK to obtain the phosphorylated form)
Assay: p38 (MAP) kinase in vitro assay (transfer of γ-phosphate from γ-33P-ATP to Myelin Basic Protein)
Format: biochemical
Conditions: phosphorylated recombinant p38 MAP kinase, MBP substrate, 30° C.
Protocol: This example illustrates a p38 (MAP) kinase in vitro assay useful for evaluating the compounds of the invention.
The p38 MAP kinase inhibitory activity of compounds of this invention in vitro was determined by measuring the transfer of the γ-phosphate from γ-^33P-ATP by p-38 kinase to Myelin Basic Protein (MBP), using a minor modification of the method described in Ahn, et al., J. Biol. Chem. 266:4220-4227 (1991).
The phosphorylated form of the recombinant p38 MAP kinase was co-expressed with SEK-1 and MEKK in E. Coli (see, Khokhlatchev, et al., J Biol. Chem. 272:11057-11062 (1997)) and then purified by affinity chromatography using a Nickel column.
The phosphorylated p38 MAP kinase was diluted in kinase buffer (20 mM 3-(N-morpholino)propanesulfonic acid, pH 7.2, 25 mM β-glycerol phosphate, 5 mM ethylene glycol-bis(beta-aminoethyl ether)-N,N,N′,N′-tetraacetic acid, 1 mM sodium ortho-vanadate, 1 mM dithiothreitol, 40 mM magnesium chloride). Test compound dissolved in DMSO or only DMSO (control) was added and the samples were incubated for 10 min at 30° C. The kinase reaction was initiated by the addition of a substrate cocktail containing MBP and γ-^33P-ATP. […] The phosphorylated MBP was then separated from the residual γ-^33P-ATP using a phosphocellulose membrane (Millipore, Bedfrod, Mass.) and quantitated using a scintillation counter (Packard, Meriden, Conn.).

T1 sequence (Q16539 whole entry): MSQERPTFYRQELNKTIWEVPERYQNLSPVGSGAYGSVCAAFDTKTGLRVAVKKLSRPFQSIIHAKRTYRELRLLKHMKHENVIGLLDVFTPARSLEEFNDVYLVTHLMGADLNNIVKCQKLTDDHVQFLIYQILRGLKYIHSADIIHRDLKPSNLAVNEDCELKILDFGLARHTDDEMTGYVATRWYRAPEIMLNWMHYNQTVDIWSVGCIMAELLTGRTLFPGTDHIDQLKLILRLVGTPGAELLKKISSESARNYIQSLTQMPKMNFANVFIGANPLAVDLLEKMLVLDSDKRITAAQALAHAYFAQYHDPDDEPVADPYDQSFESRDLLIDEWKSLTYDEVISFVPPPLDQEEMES

With `Oc1ccc(-c2n[nH]c3cc(Oc4ccccc4F)ccc23)cc1` [Compound 35, 4-[6-(2-Fluoro-phenoxy)-1H-indazol-3-yl]-phenol] as the molecule, how does the IC50 read?
The IC50 was 28 nM.
